Results reported in patent US20260098053A1, “COMPOSITIONS AND METHODS FOR TREATING CNS DISORDERS” (SAGE THERAPEUTICS, INC., priority 2019, published 2026).

Each molecule was assayed against [35S]-TBPS binding, rat brain cortical membranes (assay: Steroid inhibition of [35S]-TBPS binding). Settings: Table 4, 3 nM [35S]-TBPS, in the presence of 5 mM GABA, read-out: TBPS IC50.
Description: [35S]-t-Butylbicyclophosphorothionate (TBPS) binding assays using rat brain cortical membranes in the presence of 5 mM GABA has been described (Gee et al, J. Pharmacol. Exp. Ther. 1987, 241, 346-353; Hawkinson et al, Mol. Pharmacol. 1994, 46, 977-985; Lewin, A. H et al., Mol. Pharmacol. 1989, 35, 189-194).
Briefly, cortices are rapidly removed following decapitation of carbon dioxide-anesthetized Sprague-Dawley rats (200-250 g). The cortices are homogenized in 10 volumes of ice-cold 0.32 M sucrose using a glass/teflon homogenizer and centrifuged at 1500×g for 10 min at 4° C. The resultant supernatants are centrifuged at 10,000×g for 20 min at 4° C. to obtain the P2 pellets. The P2 pellets are resuspended in 200 mM NaCl/50 mM Na—K phosphate pH 7.4 buffer and centrifuged at 10,000×g for 10 min at 4° C. This washing procedure is repeated twice and the pellets are resuspended in 10 volumes of buffer. Aliquots ([…]) of the membrane suspensions are incubated with 3 nM [^35S]-TBPS and […] aliquots of test drug dissolved in dimethyl sulfoxide (DMSO) (final 0.5%) in the presence of 5 mM GABA. The incubation is brought to a final volume of 1.0 mL with buffer. Nonspecific binding is determined in the presence of […] and ranged from 15 to 25%. Following a 90 min incubation at room temp, the assays are terminated by filtration through glass fiber filters (Schleicher and Schuell No. 32) using a cell harvester (Brandel) and rinsed three times with ice-cold buffer. Filter bound radioactivity is measured by liquid scintillation spectrometry. Non-linear curve fitting of the overall data for each drug averaged for each concentration is done using Prism (GraphPad). […] The concentration of test compound producing 50% inhibition (IC50) of specific binding and the maximal extent of inhibition (Imax) are determined for the individual experiments with the same model used for the overall data and then the means±SEM.s of the individual experiments are calculated.
Various compounds are or can be screened to determine their potential as modulators of [^35S]-TBPS binding in vitro. These assays are or can be performed in accordance with the above
In the case of C[C@]1(O)CC[C@@H]2CC[C@@H]3[C@H](CC[C@]4(C)[C@H](C(=O)Cn5cc(C#N)cn5)CCC[C@@H]34)[C@@]2(C)CC1 [Example 45, 1-(2-((1R,4aS,4bR,6aS,9S,11aS,11bS,13aS)-9-hydroxy-9,11a,13a-trimethyloctadecahydro-1H-cyclohepta[a]phenanthren-1-yl)-2-oxoethyl)-1H-pyrazole-4-carbonitrile], the IC50 is reported as greater than 1 µM. CC(=O)[C@H]1CCCC[C@H]2[C@@H]3CC[C@@H]4C[C@](C)(O)CCC[C@]4(C)[C@H]3CC[C@]12C [Example 59, 1-((1S,5aS,5bR,7aR,9R,12aS,12bS,14aS)-9-hydroxy-9,12a,14a-trimethylicosahydrodicyclohepta[a,f]naphthalen-1-yl)ethanone] showed an IC50 of 0.1 to 1 µM. For CC[C@]12CC[C@@](C)(O)C[C@H]1CC[C@H]1[C@@H]3CCCC[C@H](C(=O)Cn4cc(C#N)cn4)[C@@]3(C)CC[C@@H]12 [Example 24], the IC50 was less than 0.1 µM. CC[C@]12CCCC(C)(O)C[C@H]1CC[C@H]1[C@@H]3CC[C@H](C(=O)Cn4cc(C#N)cn4)[C@@]3(C)CC[C@@H]12 (stereo in doubt) [Example 20, 1-(2-((1S,3aS,3bS,5aR,7S,10aS,10bS,12aS)-10a-ethyl-7-hydroxy-7,12a-dimethyloctadecahydrocyclohepta[a]cyclopenta[f]naphthalen-1-yl)-2-oxoethyl)-1H-pyrazole-4-carbonitrile] showed an IC50 of less than 0.1 µM. CC(=O)[C@H]1CCC[C@H]2[C@@H]3CC=C4CC[C@](C)(O)CC[C@]4(C)[C@H]3CC[C@]12C [Example 57, 1-((1S,4aS,4bS,9S,11aR,11bS,13aS)-9-hydroxy-9,11a,13a-trimethyl-2,3,4,4a,4b,5,7,8,9,10,11,11a,11b,12,13,13a-hexadecahydro-1H-cyclohepta[a]phenanthren-1-yl)ethanone] showed an IC50 of less than 0.1 µM. Work on COC[C@@]1(O)CCC[C@@]2(C)[C@@H](CC[C@@H]3[C@@H]2CC[C@]2(C)[C@@H](C(=O)Cn4cc(C#N)cn4)CCC[C@@H]32)C1 [Example 43] yielded an IC50 of less than 0.1 µM. For Cc1nnn(CC(=O)[C@H]2CCC[C@H]3[C@@H]4CC[C@@H]5C[C@](C)(O)CCC[C@@H]5[C@H]4CC[C@]23C)n1 [Example 11, 1-((1S,4aS,4bR,6aR,8R,11aS,11bR,13aS)-8-hydroxy-8,13a-dimethyloctadecahydro-1H-cyclohepta[a]phenanthren-1-yl)-2-(5-methyl-2H-tetrazol-2-yl)ethan-1-one], the IC50 was less than 0.1 µM. CC[C@]1(O)CC[C@H]2CC[C@@H]3[C@H](CC[C@]4(C)[C@@H](C(C)=O)CCC[C@@H]34)[C@H]2CC1 [Example 49, 1-((1S,4aS,4bR,6aR,9S,11aS,11bR,13aS)-9-ethyl-9-hydroxy-13a-methyloctadecahydro-1H-cyclohepta[a]phenanthren-1-yl)ethanone] was tested, and the IC50 was greater than 1 µM. C[C@]1(O)CC[C@H]2CC[C@@H]3[C@H](CC[C@]4(C)[C@H](C(=O)Cn5cc(C#N)cn5)CCC[C@@H]34)[C@H]2CC1 [Example 3] was tested, and the IC50 was greater than 1 µM. With CC[C@]12CC[C@@](C)(O)C[C@H]1CC[C@H]1[C@@H]3CCC[C@H](C(=O)Cn4cc(C#N)cn4)[C@@]3(C)CC[C@@H]12 [Example 19, 1-(2-((1S,4aS,4bS,6aR,8R,10aS,10bS,12aS)-10a-ethyl-8-hydroxy-8,12a-dimethyloctadecahydrochrysen-1-yl)-2-oxoethyl)-1H-pyrazole-4-carbonitrile] the IC50 was less than 0.1 µM. CC[C@]12CC[C@H]3[C@@H](CC[C@@H]4CC[C@](C)(O)CC[C@@H]43)[C@@H]1CC[C@@H]2C(=O)Cn1cc(C#N)cn1 [Example 33] showed an IC50 of 0.1 to 1 µM. C[C@]1(O)CC[C@@H]2CC[C@@H]3[C@H](CC[C@]4(C)[C@@H](C(=O)Cn5cc(C#N)cn5)CCC[C@@H]34)[C@@]2(C)CC1 [Example 44, 1-(2-((1S,4aS,4bR,6aS,9S,11aS,11bS,13aS)-9-hydroxy-9,11a,13a-trimethyloctadecahydro-1H-cyclohepta[a]phenanthren-1-yl)-2-oxoethyl)-1H-pyrazole-4-carbonitrile] gave an IC50 of 0.1 to 1 µM. Work on C[C@]1(O)CC[C@H]2CC[C@@H]3[C@H](CC[C@]4(C)[C@@H](C(=O)Cn5cc(C#N)cn5)CCC[C@@H]34)[C@@]2(C)CC1 [Example 52, 1-(2-((1S,4aS,4bR,6aR,9S,11aS,11bS,13aS)-9-hydroxy-9,11a,13a-trimethyloctadecahydro-1H-cyclohepta[a]phenanthren-1-yl)-2-oxoethyl)-1H-pyrazole-4-carbonitrile] yielded an IC50 of 0.1 to 1 µM. Molecule COC[C@]1(O)CC[C@H]2CC[C@@H]3[C@H](CC[C@]4(C)[C@@H](C(=O)Cn5cc(C#N)cn5)CCC[C@@H]34)[C@H]2CC1 [Example 46, 1-(2-((1S,4aS,4bR,6aR,9S,11aS,11bR,13aS)-9-hydroxy-9-(methoxymethyl)-13a-methyloctadecahydro-1H-cyclohepta[a]phenanthren-1-yl)-2-oxoethyl)-1H-pyrazole-4-carbonitrile] has an IC50 of 0.1 to 1 µM.

Same assay, conditions: Table 5, 3 nM [35S]-TBPS, in the presence of 5 mM GABA, read-out: TBPS IC50
For Cc1nnn(CC(=O)[C@H]2CCC[C@H]3[C@@H]4CC[C@H]5C[C@](C)(O)CC[C@@H]5[C@H]4CC[C@@H]32)n1 [Example 80, 1-((1S,4aS,4bR,6aS,8R,10aS,10bR,12aS)-8-hydroxy-8-methyloctadecahydrochrysen-1-yl)-2-(5-methyl-2H-tetrazol-2-yl)ethanone], the IC50 was less than 0.1 µM. Molecule C[C@@]1(O)CC[C@H]2[C@H](CC[C@@H]3[C@@H]2CC[C@H]2[C@H]3CC[C@H]2C(=O)Cn2cc(C#N)cn2)C1 (stereo in doubt) [Example 71] has an IC50 greater than 1 µM. In the case of Cc1nnn(CC(=O)[C@H]2CC[C@H]3[C@@H]4CC[C@@H]5C[C@](C)(O)CC[C@@H]5[C@H]4CC[C@@H]32)n1 [Example 69, 1-((3R,5R,8R,9R,10S,13S,14S,17S)-3-hydroxy-3-methylhexadecahydro-1H-cyclopenta[a]phenanthren-17-yl)-2-(5-methyl-2H-tetrazol-2-yl)ethan-1-one], the IC50 is reported as less than 0.1 µM. With CC(=O)[C@H]1CCC[C@H]2[C@@H]3CC[C@H]4C[C@](C)(O)CC[C@@H]4[C@H]3CC[C@@H]21 [Example 79, 1-((1S,4aS,4bR,6aS,8R,10aS,10bR,12aS)-8-hydroxy-8-methyloctadecahydrochrysen-1-yl)-ethanone] the IC50 was 0.1 to 1 µM. Work on CC(=O)[C@H]1CC[C@H]2[C@@H]3CC[C@H]4C[C@](C)(O)CC[C@@H]4[C@H]3CC[C@@H]21 [Example 72, 1-((3R,5S,8R,9R,10S,13S,14S,17S)-3-hydroxy-3-methylhexadecahydro-1H-cyclopenta[a]phenanthren-17-yl)ethanone] yielded an IC50 greater than 1 µM. With C[C@@]1(O)CC[C@H]2[C@H](CC[C@H]3[C@@H]4CC[C@H](C(=O)Cn5cc(C#N)cn5)[C@@H]4CC[C@@H]32)C1 [Example 84, 1-(2-((3R,5R,8R,9R,10S,13R,14S,17S)-3-hydroxy-3-methylhexadecahydro-1H-cyclopenta[a]phenanthren-17-yl)-2-oxoethyl)-1H-pyrazole-4-carbonitrile] the IC50 was 0.1 to 1 µM. In the case of C[C@@]1(O)CC[C@H]2[C@H](CC[C@@H]3[C@@H]2CC[C@H]2[C@H]3CCC[C@@H]2C(=O)Cn2cc(C#N)cn2)C1 [Example 78, 1-(2-((1S,4aS,4bR,6aR,8R,10aS,10bR,12aS)-8-hydroxy-8-methyloctadecahydrochrysen-1-yl)-2-oxoethyl)-1H-pyrazole-4-carbonitrile], the IC50 is reported as less than 0.1 µM.

Same assay, conditions: Table 6, 3 nM [35S]-TBPS, in the presence of 5 mM GABA, read-out: IC50
In the case of C[C@@]1(O)CC[C@@]2(C3CC3)[C@H](CC[C@H]3[C@@H]4CCC[C@@H](C(=O)Cn5cc(C#N)cn5)[C@@]4(C)CC[C@@H]32)C1 [Example 86, 1-(2-((1R,4aS,4bS,6aR,8R,10aR,10bS,12aS)-10a-cyclopropyl-8-hydroxy-8,12a-dimethyloctadecahydrochrysen-1-yl)-2-oxoethyl)-1H-pyrazole-4-carbonitrile], the IC50 is reported as greater than 1 µM. Molecule CC[C@]12CC[C@H]3[C@@H](CC[C@@H]4C[C@](C)(O)CC[C@@]43C3CC3)[C@@H]1CC[C@@H]2C(=O)Cn1nnc(C)n1 [Example 91, 1-((3R,5R,8S,9S,10R,13S,14S,17S)-10-cyclopropyl-13-ethyl-3-hydroxy-3-methylhexadecahydro-1H-cyclopenta[a]phenanthren-17-yl)-2-(5-methyl-2H-tetrazol-2-yl)ethanone] has an IC50 of less than 0.1 µM.
